# Laboratory results as given in US9456971B2, “Moisturizer and cosmetic agent containing same” (AJINOMOTO CO., INC., priority 2012, dated 2016).
# Tests used:
# Format in all cases: physicochemical
# [1] = Evaluation of moisturizer: water retention ability; settings: R(%)=[3]/[2]×100; after moisture absorption, dried at 35% RH, 25° C. for 14 days
# Procedure: (§1) To study the hygroscopicity and water retention ability of moisturizers, the following experiment was performed.
# Decanoyl proline sodium obtained in Synthetic Example 2, betaine (“aminocoat” manufactured by Asahi Kasei Corporation), sodium lactate (manufactured by Wako), sodium pyrrolidonecarboxylate (“AJIDEW” NL-50 manufactured by Ajinomoto Co., Inc.), glycerol (“concentrated glycerin” manufactured by Kao Corporation), and sorbitol (manufactured by Kao Corporation) were each dried under vacuum. The moisture level of the samples was measured by Karl Fischer moisture meter, the amount of water was determined, and the weight other than the moisture level was calculated ([1]). Thereafter, the samples were allowed to absorb moisture under the conditions of 65% RH, 25° C. for 14 days, and the weight was measured ([2]). Thereafter, the samples were dried under the conditions of 35% RH, 25° C. for 14 days, and the weight was measured ([3]). […]
# [2] = Stability against decomposition (acceleration test, HPLC); settings: 30.0 wt % in water, 70° C. for 22 days
# Procedure: Solutions of the compound of Synthetic Example 2 (decanoyl proline Na, 30.0 wt %) in water with or without addition of etidronate to 0.1 wt % were prepared, and they were subjected to an acceleration test at 70° C. for 22 days. The decomposition rate of the compound of Synthetic Example 2 in each composition was measured using HPLC (20A manufactured by Shimadzu Corporation).
# [3] = Evaluation of moisturizer: hygroscopicity; settings: A(%)=([2]−[1])/[1]×100; vacuum-dried sample allowed to absorb moisture at 65% RH, 25° C. for 14 days
# Procedure: as §1
# Decanoyl proline sodium obtained in Synthetic Example 2, betaine (“aminocoat” manufactured by Asahi Kasei Corporation), sodium lactate (manufactured by Wako), sodium pyrrolidonecarboxylate (“AJIDEW” NL-50 manufactured by Ajinomoto Co., Inc.), glycerol (“concentrated glycerin” manufactured by Kao Corporation), and sorbitol (manufactured by Kao Corporation) were each dried under vacuum. The moisture level of the samples was measured by Karl Fischer moisture meter, the amount of water was determined, and the weight other than the moisture level was calculated ([1]). Thereafter, the samples were allowed to absorb moisture under the conditions of 65% RH, 25° C. for 14 days, and the weight was measured ([2]). Thereafter, the samples were dried under the conditions of 35% RH, 25° C. for 14 days, and the weight was measured ([3]).
# • A(%)=([2]−[1])/[1]×100 was calculated and the samples were evaluated according to the following criteria. • ⊙: value of A is not less than 15% • ◯: value of A is not less than 12% and less than 15% • Δ: value of A is not less than 10% and less than 12% • ×: value of A is less than 10% [Water Retention Ability] • R(%)=[3]/[2]×100 was calculated and the samples were evaluated according to the following criteria. • ⊙: value of R is not less than 80% • ◯: value of R is not less than 60% and less than 80% • Δ: value of R is not less than 40% and less than 60% • ×: value of R is less than 40%
Structure (SMILES),decomposition rate of decanoyl proline Na ([2]; etidronate added to 0.1 wt %) [%],decomposition rate of decanoyl proline Na ([2]; etidronate not added) [%],hygroscopicity [3],water retention ability [1]
"CCCCCCCCCC(=O)N1CCC[C@H]1C(=O)[O-].[Na+] [Example 1, decanoyl proline sodium salt]",0.8,2.4,⊙ (value of A is not less than 15%),⊙ (value of R is not less than 80%)
"CC(O)C(=O)[O-].[Na+] (stereo not drawn) [compound 2, sodium lactate]",,,⊙ (value of A is not less than 15%),
"O=C1CCC(C(=O)[O-])N1.[Na+] (stereo not drawn) [compound 3, sodium pyrrolidonecarboxylate]",,,⊙ (value of A is not less than 15%),

# Continued, in another order:
decomposition rate of decanoyl proline Na ([2]; etidronate added to 0.1 wt %) [%],decomposition rate of decanoyl proline Na ([2]; etidronate not added) [%],hygroscopicity [3],Structure (SMILES),water retention ability [1]
,,⊙ (value of A is not less than 15%),"C[N+](C)(C)CC(=O)O [compound 1, betaine]",Δ (value of R is not less than 40% and less than 60%)
,,⊙ (value of A is not less than 15%),"OCC(O)CO [compound 4, glycerol]",
